Our source for the Kd and EC50 values is US10947252B2, “Inhibitors of KEAP1-Nrf2 protein-protein interaction” (Janssen Pharmaceutica NV, priority 2018, dated 2021).

Bounds are passed on as bounds.

Experiment [1] addresses Kelch domain of human KEAP1 (321-624 aa) (Homo sapiens (Human), UniProt Q14145). In words: KEAP1 KELCH ThermoFluor binding assay.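 Note: Ligand-induced melting temperature shift of E. coli-expressed KEAP1 Kelch protein, Kd estimated from concentration-response curves of ΔTm.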 The conditions noted are these: KEAP Kelch […], 1,8-ANS, pH 7.0, average of results obtained, read-out: Tf Kd.
Experiment [2] has as its system Glo-Response ARE-luc2P HEK293 cell line. Description: ARE luciferase reporter cell-based assay.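 Note: luciferase signal tracks Nrf2 activation of the ARE once compounds disrupt KEAP1-Nrf2 binding, read with One-Glo reagent, DMSO serving as low control.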 The note with it: Homo sapiens, HEK293, 24 h, average of results obtained.

Kelch domain of human KEAP1 (321-624 aa), sequence (Q14145 321-624): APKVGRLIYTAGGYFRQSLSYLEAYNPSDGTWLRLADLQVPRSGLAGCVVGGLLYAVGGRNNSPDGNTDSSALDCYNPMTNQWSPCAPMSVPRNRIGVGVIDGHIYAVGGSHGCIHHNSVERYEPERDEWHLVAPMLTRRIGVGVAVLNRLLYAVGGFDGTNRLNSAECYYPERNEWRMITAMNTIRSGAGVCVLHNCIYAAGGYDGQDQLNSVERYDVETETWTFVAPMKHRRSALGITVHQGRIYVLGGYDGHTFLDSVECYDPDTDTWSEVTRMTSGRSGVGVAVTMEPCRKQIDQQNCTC

As for `Cc1ccc(C(CC(=O)O)c2ccn3c(C)nnc3c2)cc1CN1CC(C)(C)Oc2ncccc2S1(=O)=O` (racemic) [Example 160, (R/S)-3-(3-((4,4-Dimethyl-1,1-dioxido-3,4-dihydro-2H-pyrido[2,3-b][1,4,5]oxathiazepin-2-yl)methyl)-4-methylphenyl)-3-(3-methyl-[1,2,4]triazolo[4,3-a]pyridin-7-yl)propanoic Acid], in experiment [1], the Kd was under 1 nM. In addition, a half-maximal effect in experiment [2] (EC50) was put at 19000 nM.

Turning to `Cc1cnc([C@@H](c2ccn3c(C(F)(F)F)nnc3c2C)C(C)(C)C(=O)O)cc1CN1CC2(CCOCC2)Oc2ncccc2S1(=O)=O` (single isomer, unassigned) [Example 56, (*S)-3-(4-((1′,1′-Dioxido-2,3,5,6-tetrahydrospiro[pyran-4,4′-pyrido[2,3-b][1,4,5]oxathiazepin]-2′(3′H)-yl)methyl)-5-methylpyridin-2-yl)-2,2-dimethyl-3-(8-methyl-3-(trifluoromethyl)-[1,2,4]triazolo[4,3-a]pyridin-7-yl)propanoic Acid], the Kd in experiment [1] is under 1 nM. Besides, a half-maximal effect in experiment [2] (EC50) was put at 48 nM.

For the compound `Cc1c([C@H](CC(=O)O)c2ccc(Cl)c(CN3CC4CCCCN4c4ncc(F)cc4S3(=O)=O)c2)ccn2c(C(F)(F)F)nnc12` (single isomer, unassigned) [Example 93, (*R)-3-(4-Chloro-3-(((*S)-3-fluoro-5,5-dioxido-7,7a,8,9,10,11-hexahydro-6H-dipyrido[2,1-d:2′,3′-f][1,2,5]thiadiazepin-6-yl)methyl)phenyl)-3-(8-methyl-3-(trifluoromethyl)-[1,2,4]triazolo[4,3-a]pyridine-7-yl)propanoic Acid], in experiment [1], the Kd was under 1 nM. In experiment [2], this compound showed an EC50 of 10 nM.

Turning to `Cc1ccc([C@@H](c2ccn3c(C(F)(F)F)nnc3c2C)C(C)(C)C(=O)O)cc1CN1CC2(CCOCC2)Oc2nc(O[C@H](C)CN3CCCCC3)c(C)cc2S1(=O)=O` (single isomer, unassigned) [Example 601, (*S)-2,2-Dimethyl-3-(4-methyl-3-((8′-methyl-1′,1′-dioxido-7′-(((*R)-1-(piperidin-1-yl)propan-2-yl)oxy)-2,3,5,6-tetrahydrospiro[pyran-4,4′-pyrido[2,3-b][1,4,5]oxathiazepin]-2′,(3′H)-yl)methyl)phenyl)-3-(8-methyl-3-(trifluoromethyl)-[1,2,4]triazolo[4,3-a]pyridine-7-yl)propanoic Acid], the Kd in experiment [1] was under 1 nM. The EC50 in experiment [2] turned out to be 4.79 nM.

Consider `Cc1ccc([C@@H](CC(=O)O)c2ccn3c(C(F)(F)F)nnc3c2C)cc1CN1C[C@H]2CCCCN2c2ncccc2S1(=O)=O` (single isomer, unassigned) [Example 273, (*R)-3-(3-(((*R)-5,5-Dioxido-7,7a,8,9,10,11-hexahydro-6H-dipyrido[2,1-d:2′,3′-f][1,2,5]thiadiazepin-6-yl)methyl)-4-methylphenyl)-3-(8-methyl-3-(trifluoromethyl)-[1,2,4]triazolo[4,3-a]pyridin-7-yl)propanoic Acid], for which the Kd in experiment [1] is under 1 nM. Moreover, the EC50 in experiment [2] came to 25.8 nM.

On to `Cc1ccc([C@H](c2ccn3c(C(F)(F)F)nnc3c2C)C(C)(C)C(=O)O)cc1CN1CC2(CCOCC2)Oc2nc(N[C@H](C)C(C)(C)O)c(C)cc2S1(=O)=O` (single isomer, unassigned) [Example 124, (*R)-3-(3-((7′-(((R)-3-Hydroxy-3-methylbutan-2-yl)amino)-8′-methyl-1′,1′-dioxido-2,3,5,6-tetrahydrospiro[pyran-4,4′-pyrido[2,3-b][1,4,5]oxathiazepin]-2′(3′H)-yl)methyl)-4-methylphenyl)-2,2-dimethyl-3-(8-methyl-3-(trifluoromethyl)-[1,2,4]triazolo[4,3-a]pyridin-7-yl)propanoic Acid], for which the dissociation constant (Kd) in experiment [1] is under 1 nM. In experiment [2], a half-maximal response (EC50) required 28.8 nM.

`Cc1ccc([C@@H](c2ccn3c(C(F)(F)F)nnc3c2C)C(C)(C)C(=O)O)cc1CN1CC2(CCOCC2)Oc2nc(OCCN3CCCC3)c(C)cc2S1(=O)=O` (single isomer, unassigned) [Example 370, (*S)-2,2-Dimethyl-3-(4-methyl-3-((8′-methyl-1′,1′-dioxido-7′-(2-(pyrrolidin-1-yl)ethoxy)-2,3,5,6-tetrahydrospiro[pyran-4,4′-pyrido[2,3-b][1,4,5]oxathiazepin]-2′(3′H)-yl)methyl)-4-methylphenyl)-2,2-dimethyl-3-(8-methyl-3-(trifluoromethyl)-[1,2,4]triazolo[4,3-a][pyridine-7-yl)propanoic Acid]: the Kd in experiment [1] was under 1 nM. Moreover, the EC50 in experiment [2] stood at 11.3 nM.

Turning to `Cc1ccc([C@@H](CC(=O)O)c2ccn3c(C(F)(F)F)nnc3c2C)cc1CN1C[C@H]2CCCN2c2ccccc2S1(=O)=O` (single isomer, unassigned) [Example 267, (*R)-3-(3-(((R)-5,5-Dioxido-7a,8,9,10-tetrahydrobenzo[f]pyrrolo[2,1-d][1,2,5]thiadiazepin-6(7H)-yl)methyl)-4-methylphenyl)-3-(8-methyl-3-(trifluoromethyl)-[1,2,4]triazolo[4,3-a]pyridin-7-yl)propanoic Acid], the Kd in experiment [1] was under 1 nM. In experiment [2], the EC50 is 90.4 nM.

`Cc1ccc([C@H](c2ccn3c(C(F)(F)F)nnc3c2C)C(C)(C)C(=O)O)cc1CN1CC2(CC2)Oc2nc(N[C@@H](C)CN3CCCCC3)c(C)cc2S1(=O)=O` (single isomer, unassigned) [Example 380, (*R)-2,2-Dimethyl-3-(4-methyl-3-((8′-methyl-1′,1′-dioxido-7′-(((S)-1-piperidin-1-yl)propan-2-yl)amino)spiro[cyclopropane-1,4′-pyrido [2,3-b][1,4,5]oxathiazepin]-2′(3′H)-yl)methyl)phenyl)-3-(8-methyl-3-(trifluoromethyl)-[1,2,4]triazolo[4,3-a]pyridine-7-yl)propanoic Acid]: in experiment [1], the Kd was under 1 nM. The compound further had an EC50 in experiment [2] of 14.1 nM.

As for `Cc1cnc2c(c1)S(=O)(=O)N(Cc1cc([C@@H](CC(=O)O)c3ccn4c(C(F)F)nnc4c3C)ccc1C)CC1(CC1)O2` (single isomer, unassigned) [Example 537, (*R)-3-(3-(Difluoromethyl)-8-methyl-[1,2,4]triazolo[4,3-a]pyridin-7-yl)-3-(4-methyl-3-((8′-methyl-1′,1′-dioxidospiro[cyclopropane-1,4′-pyrido[2,3-b][1,4,5]oxathiazepin]-2′(3′H)-yl)methyl)phenyl)propanoic Acid], in experiment [1], the Kd is under 1 nM. In experiment [2], this compound came in with an EC50 of 464 nM.

As to `Cc1ccc([C@@H](CC(=O)O)c2ccn3c(C(F)(F)F)nnc3c2C)nc1CN1C[C@@H]2CCCCN2c2ncc(F)cc2S1(=O)=O` (single isomer, unassigned) [Example 497, (*S)-3-(6-(((*S)-3-Fluoro-5,5-dioxido-7,7a,8,9,10,11-hexahydro-6H-dipyrido[2,1-d:2′,3′-f][1,2,5]thiadiazepin-6-yl)methyl)-5-methylpyridin-2-yl)-3-(8-methyl-3-(trifluoromethyl)-[1,2,4]triazolo[4,3-a]pyridin-7-yl)propanoic Acid], in experiment [1], the Kd is under 1 nM. The compound also yielded an EC50 in experiment [2] of 4.47 nM.

On to `Cc1ccc([C@@H](c2ccn3c(C(F)F)nnc3c2C)C(C)(C)C(=O)O)cc1CN1CC2(CCOCC2)Oc2nc(OCCN3CCOCC3)ccc2S1(=O)=O` (single isomer, unassigned) [Example 579, (*S)-3-(3-(Difluoromethyl)-8-methyl-[1,2,4]triazolo[4,3-a]pyridin-7-yl)-2,2-dimethyl-3-(4-methyl-3-((7′-(2-morpholinoethoxy)-1′,1′-dioxido-2,3,5,6-tetrahydrospiro[pyran-4,4′-pyrido[2,3-b][1,4,5]oxathiazepin]-2′(3′H)-yl)methyl)phenyl)propanoic Acid], for which the Kd in experiment [1] was under 1 nM. Besides, the EC50 in experiment [2] turned out to be 27.8 nM.

In the case of `Cc1ccc([C@@H](c2ccn3c(C(F)(F)F)nnc3c2C)C(C)(C)C(=O)O)cc1CN1CC2(CC2)Oc2ncccc2S1(=O)=O` (single isomer, unassigned) [Example 317, (*S)-3-(3-((1′,1′-Dioxidospiro[cyclopropane-1,4′-pyrido[2,3-b][1,4,5]oxathiazepin]-2′(3′H)-yl)methyl)-4-methylphenyl)-2,2-dimethyl-3-(8-methyl-3-(trifluoromethyl)-[1,2,4]triazolo[4,3-a]pyridin-7-yl)propanoic Acid], the Kd in experiment [1] was under 1 nM. This compound also came in with an EC50 in experiment [2] of 1.9 nM.

For the compound `COc1ccc2c(n1)OC1(CCOCC1)CN(Cc1cc([C@H](c3ccn4c(C(F)F)nnc4c3C)C(C)(C)C(=O)O)ccc1C)S2(=O)=O` (single isomer, unassigned) [Example 583, (*R)-3-(3-(Difluoromethyl)-8-methyl-[1,2,4]triazolo[4,3-a]pyridin-7-yl)-3-(3-((7′-methoxy-1′,1′-dioxido-2,3,5,6-tetrahydrospiro[pyran-4,4′-pyrido[2,3-b][1,4,5]oxathiazepin]-2′(3′H)-yl)methyl)-4-methylphenyl)-2,2-dimethylpropanoic Acid], in experiment [1], the Kd turned out to be 1610 nM. The compound further showed an EC50 in experiment [2] of 766 nM.

As for `CCn1nnc2c(C)c(C(CC(=O)O)c3ccc(C)c(CN4CC5(CC5)Oc5ncccc5S4(=O)=O)n3)ccc21` (racemic) [Example 243, (R/S)-3-(6-((1′,1′-Dioxidospiro[cyclopropane-1,4′-pyrido[2,3-b][1,4,5]oxathiazepin]-2′(3′H)-yl)methyl)-5-methylpyridin-2-yl)-3-(1-ethyl-4-methyl-1H-benzo[d][1,2,3]triazol-5-yl)propanoic Acid], the Kd in experiment [1] was under 1 nM. This compound had an EC50 in experiment [2] of 35 nM.

On to `CCn1nnc2c(C)c([C@@H](CC(=O)O)c3ccc(C)c(CN4C[C@H]5CCCCN5c5ncccc5S4(=O)=O)n3)ccc21` (single isomer, unassigned) [Example 306, (*R)-3-(6-(((*R)-5,5-Dioxido-7,7a,8,9,10,11-hexahydro-6H-dipyrido[2,1-d:2′,3′-f][1,2,5]thiadiazepin-6-yl)methyl)-5-methylpyridin-2-yl)-3-(1-ethyl-4-methyl-1H-benzo[d][1,2,3]triazol-5-yl)propanoic Acid], for which the Kd in experiment [1] is under 1 nM. Further, in experiment [2], the EC50 was found to be 9.4 nM.
